According to US20160113900A1, “INHIBITORS OF MITOCHONDRIAL STAT3 AND USES THEREOF IN MODULATION OF MAST CELL EXOCYTOSIS” (Yissum Research Development Company of the Hebrew …, priority 2014, published 2016):

Experiments:
RBL cells [1] = assay: β-Hexosaminidase release assay (degranulation) in RBL cells; type: cell-based, rat
Experimental: (§1) RBL-2H3 cells were maintained in RPMI 1640 medium as previously described1. Bone marrow was isolated from 5-6 week-old mice, and BMMC were cultured in RPMI medium supplemented with 20 ng/ml interleukin-3 (IL-3) and 20 ng/ml SCF as previously described2, 3. Cells were generally grown for a minimum of 4 weeks and used when >90% of the population expressed FcεRI. BMMC and RBL cells were sensitized first with anti-DNP IgE monoclonal antibody (SPE-7; Sigma-Aldrich Corp.) and then challenged with DNP-BSA (Sigma-Aldrich Corp.). IgE antibody was centrifuged (18,000 g, 5 min) before use to remove aggregates. […] For glycolysis elimination cells were maintained in glucose-free RPMI supplemented with 10% dialyzed fetal calf serum and 5 mM galactose.
(§2) 1×104 RBL or 3×104 BMMC were immunologically activated as described above. After IgE incubation, the cells were washed three times with 5 mL of degranulation buffer (NaCl 130 mM, KCl 5 mM, Glucose 5.6 mM, MgCl2 1 mM, CaCl2 1.2 mM, Hepes pH 7.4 10 mM, BSA 0.1%) and resuspended in 200 μL of the same buffer with DNP-albumin for 30 min. The release of β-hexosaminidase was determined in triplicates in a 96-well plate. Aliquots (20 μL) of supernatants and cell lysates were incubated for 30 minutes with 100 μL of substrate solution (1.3 mg/mL p-nitrophenyl-b-D-2-acetamido-2-deoxyglucopyranozide in 0.1 M citrate [pH 4.51]). The reaction was stopped by the addition of 200 μL of 0.2 M glycine (pH 10.7). The plate OD was read in an enzyme-linked immunosorbent assay (ELISA) reader at a wavelength of 405 nm Percent release values for each experimental condition were calculated3.

c-myc = assay: Western blot of c-myc (STAT3 target gene) in RBL cells; type: cell-based, rat; conditions: 3 h
Experimental: (§3) RBL cells and mitochondrial pellets were lysed by the addition of lysis buffer (50 mM Tris-HCl pH 7.4, 1% Nonidet P-40, 0.25% Na-deoxycholate, 150 mM NaCl, 1 mM EDTA, 1 mM PMSF) supplemented with 15 μl protease inhibitor (Sigma-Aldrich). Cells and mitochondria were vortexed and incubated on ice for 15 min. The lysates were then centrifuged at 14,000 g for 15 min and pellets were discarded. The protein concentration of each sample was determined using Bradford Reagent (Sigma-Aldrich). Proteins were resolved by 10-15% SDS-PAGE under reducing conditions and transferred to polyvinylidene difluoride membranes (Millipore Billerica, Ma). The membranes were incubated in 5% fat-free milk and TBST (10 mM Tris-HCl, pH 7.4, 150 mM NaCl, 0.1% Tween 20) for 1 h and then in 5% BSA and TBST containing various dilutions of primary Abs for 18 h at 4° C. The membranes were washed three times with TBST for 5 mM before and after each incubation with secondary Ab. The proteins were detected with the appropriate secondary Ab (1 h; room temperature) coupled to HRP-conjugated goat anti-rabbit or anti-mouse Ab and visualized by chemiluminescence according to the manufacturer's instructions (Pierce).
The levels of cleaved caspase3 were measured as an indicator of apoptosis, which could occur as a result of inhibiting STAT3's target genes. […] Since higher concentrations reduced the levels of c-myc and enhanced the levels of cleaved caspase3, the inventors concluded that 6 μM Mitocur-1/3 or lower would be suitable for the present invention. As these molecules are intended to be used in a time frame greater than 3 h, RBL cells were incubated with the same concentrations of Mitocur-1/3 for 24 h and the levels of cleaved caspase3 were determined by Western blot analysis.

RBL cells [2] = assay: TNF-α secretion of activated RBL cells; type: cell-based, rat; conditions: activated RBL cells (FIG. 19G)
CBMC = assay: β-Hexosaminidase release assay (degranulation) in human cord blood-derived mast cells; type: cell-based; conditions: 12 μM, 3 h incubation
caspase3 [3] = assay: Western blot of caspase3 / cleaved caspase3 (apoptosis) in RBL cells; type: cell-based, rat; conditions: RBL cells
Experimental: as §3

BMMC [4] = assay: Measurements of secreted mediators (ELISA) in activated BMMC; type: cell-based, mouse
Experimental: 1×106 BMMC were immunologically activated as described above. After IgE incubation, the cells were washed three times in PBS and incubated with DNP-albumin (Sigma-Aldrich) for 30 mM in complete growth medium. Supernatant was collected and Granzyme B and TNFα content were measured using ELISA Kits (eBioscience).

BMMC [5] = assay: β-Hexosaminidase release assay (degranulation) in BMMC; type: cell-based, mouse; conditions: activated BMMC, 6 μM
Experimental: as §1, §2

caspase3 [6] = assay: Western blot of cleaved caspase3 in BMMC; type: cell-based, mouse; conditions: 6 μM (FIG. 21D)
plasma histamine = assay: In vivo histamine release assay, passive systemic IgE-mediated anaphylaxis model; conditions: mice, Mitocur-3 40 mg/kg i.p., 3.5 h before DNP-BSA challenge
Experimental: C3H 6-7 week male and female WT mice were purchased from Jackson Lab (Cambridge, Mass., USA), mice were fed a regular diet and with drinking water ad libitum. Experiments were approved by The Hebrew University Ethical Committee for Animal Experimentation.
WT C3H mice were sensitized with 3 μg murine IgE anti-DNP mAb SPE-7 by means of intravenous injection in the tail vein. Twenty-four hours later, mice were treated with 40 mg/kg of static dissolved in corn oil or corn oil alone for 2.5 hours, then mice were challenged with i.v. injection of DNP-BSA (250 μg per mouse). 100 μl of blood was collected immediately and added to an equal volume of pre-cold Alsever's Solution. Blood was centrifuged 2000 g for […] and plasma supernatant was collected. Plasma histamine levels were determined by using competitive ELISA (IBL International Gmbh, Hamburg, Germany).
STAT3's role in vivo was investigated by evaluating the response to allergic stimulation in Stattic-treated mice. The passive systemic IgE-mediated anaphylaxis model was used. Mice were injected (i.v.) with IgE anti-DNP. Twenty four hours later they were injected (i.p.) with Stattic (80 mg/kg) or corn oil which was used as control. Three and a half hours later the mice were challenged with DNP-BSA for 1.5 minutes. Plasma was collected, and histamine levels were measured by competitive ELISA. Histamine secretion in Stattic-treated mice was 43% less than that in control mice (FIG. 17, p<0.05).
Mitocur-1/3 effectiveness in vivo was investigated by evaluating the response to allergic stimulation in Mitocur-1/3-treated mice. The passive systemic IgE-mediated anaphylaxis model was used. Mice were injected (i.v.) with IgE anti-DNP. Twenty four hours later they were injected (i.p.) with Mitocur-1 (80 mg/kg) and Mitocur-3 (40 mg/kg). Corn oil was used as control. Three and a half hours later the mice were challenged with DNP-BSA for 1.5 minutes. Plasma was collected, and histamine levels were measured by competitive ELISA. Histamine secretion in Mitocur-1-treated mice was 35% less than that in control mice (FIG. 22A, p<0.05).

RBL cells [7] = assay: ATP determination (ATPLite luminescence) in RBL cells; type: cell-based, rat; conditions: RBL cells
Experimental: as §1
ATP levels were measured using the ATPLite luminescence-based assay according to the manufacturer's instructions (Perkin Elmer, Waltham, Mass., USA).

RBL cells [8] = assay: Oxygen consumption (Seahorse XF analyzer) in RBL cells; type: cell-based, rat; conditions: RBL cells, 3 h
Experimental: as §1
Oxygen consumption rate (OCR) was measured using an XF24 extracellular flux analyzer (Seahorse Biosciences, North Billeric, Mass., USA).

[9] = cited from earlier work
[10] = immunologically activated BMMC, 6 μM (FIG. 21C)

Question: Which results are given for O=C(/C=C/c1ccc(OCCC[P+](c2ccccc2)(c2ccccc2)c2ccccc2)cc1)CC(=O)/C=C/c1ccc(OCCC[P+](c2ccccc2)(c2ccccc2)c2ccccc2)cc1 [Mitocur-3, 1,7-{4-[3-(triphenylphosphonium)propoxy]phenyl}hepta-1,6-diene-3,5-dione dichloride]?
Answer: Emax at 6 µM (RBL cells [1]; Rattus norvegicus, RBL cells, 6 μM, 3 h incubation, read-out: maximum effect, reduction of degranulation): > 50%; c-myc levels compared to control (c-myc; 6 μM): no change; c-myc levels (c-myc; concentrations higher than 6 μM): reduced; TNF-α secretion (RBL cells [2]): completely abolished; melting point: 145 to 160 °C; degranulation levels (CBMC): successfully reduced; cleaved caspase levels (caspase3 [3]; 6 μM, 3 h): no change; cleaved caspase3 levels (caspase3 [3]; 6 μM, 24 h): slight change; cleaved caspase3 levels (caspase3 [3]; concentrations higher than 6 μM, 3 h): enhanced; Granzyme-B secretion (BMMC [4]; BMMC (data not shown)): abolished; cytokine secretion: IL-6 (BMMC [4]; [10]): totally abolished; cytokine secretion: TNF-α (BMMC [4]; [10]): totally abolished; degranulation levels (BMMC [5]; 3 h incubation): reduced; degranulation levels (BMMC [5]; 24 h incubation): reduced; cleaved caspase3 levels (caspase3 [6]): no change; decrease in histamine secretion (plasma histamine): 32.4%; ATP levels (RBL cells [7]; 100 μM, 3 h (data not shown)): reduced; ATP levels (RBL cells [7]; 6-50 μM, 3 h): No significant reduction; oxygen consumption (RBL cells [8]; 100 μM): reduced; oxygen consumption (RBL cells [8]; 6-50 μM): No significant reduction

Question: Which “degranulation (β-hexosaminidase release)” value (RBL cells [1]; RBL cells, curcumin 12.5, 25, 50 and 100 μM, 10 min (FIG. 19A)) does the source give for COc1cc(/C=C/C(=O)CC(=O)/C=C/c2ccc(O)c(OC)c2)ccc1O [curcumin, (1E,6E)-1,7-Bis(4-hydroxy-3-methoxyphenyl)-1,6-heptadiene-3,5-dione] here?
Answer: significantly reduced

Question: What about the degranulation levels (RBL cells [1]; activated RBL cells, 10 min incubation with curcumin (FIG. 8)) of the same compound?
Answer: completely abolished

Question: What about the “pKa of the two phenolic OH groups” value [9] of the same compound?
Answer: 10-10.5
